Source: patent US20250026745A1 (Bluejay Therapeutics, Inc., priority 2023, published 2025)

Tests used:
[1] = target: HEK293 cells expressing 17β-HSD13 (Homo sapiens (Human), UniProt Q7Z5P4); test: 17β-HSD13 cell-based assay (β-estradiol conversion, LC-MS/MS); details: HEK293 cells stably expressing 17β-HSD13 (footnote b); read-out: EC50, nM Stable
Procedure: HEK293 cells expressing 17β-HSD13 either stably or transiently were incubated with compounds for 60 min at 37° C. in a humidified incubator. After this first incubation step, β-estradiol was added to each well of the microtiter plate and incubated for 3 h at 37° C. in the humidified incubator. After treatment with β-Estradiol, 50 μL of supernatant was transferred to a 96-V plate containing 100 μL acetonitrile and centrifuged at 3900 rpm for 45 min. Finally, 50 μL of supernatant were taken for LC-MS/MS analysis. The chromatography part was run on a Xbridge 30 mm×2.1 mm column (Waters), at 40 degrees Celsius and a flow rate of 0.8 mL/min for 5 min, while the MS was done on a Q Exactive Orbitrap (Fisher Scientific) in Target SIM mode and negative polarity with a spray voltage of 3.5 kV. EC50 values were determined with GraphPad Prism®, where log-transformed concentration values and the inhibition data were fitted to a four-parameter logistic equation. Y=Bottom+(Top−Bottom)/(1+10^((Log EC50−X)*Hill Slope)). The original, % control, or % inhibition data are represented by Y along with their minimal (Bottom) and maximal (Top) values. The inhibitor concentration is represented by X, EC50 is the concentration at 50% maximal value, and Hill Slope is the slope factor.

[2] = target: recombinant 17β-HSD13 protein (Homo sapiens (Human), UniProt Q7Z5P4); test: 17β-HSD13 biochemical assay (NAD+/NADH Glo chemiluminescence); details: 17β-HSD13 50 nM, NAD+ 10 mM, β-estradiol 20 μM, 2 hours room temperature
Sequence of recombinant 17β-HSD13 protein (Q7Z5P4 20-300): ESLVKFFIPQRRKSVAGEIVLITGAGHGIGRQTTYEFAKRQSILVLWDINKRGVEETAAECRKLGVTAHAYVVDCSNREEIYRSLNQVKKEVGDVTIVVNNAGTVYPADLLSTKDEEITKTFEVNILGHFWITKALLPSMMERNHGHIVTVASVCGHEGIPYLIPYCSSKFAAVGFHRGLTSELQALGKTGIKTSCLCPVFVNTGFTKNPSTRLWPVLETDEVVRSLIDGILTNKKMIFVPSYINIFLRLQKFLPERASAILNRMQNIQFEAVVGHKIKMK
Procedure: 17β-HSD13 biochemical assays are generically described in patents WO 2022/020730, WO 2021/003295, and WO 2023/023310. More specifically, recombinant 17β-HSD13 protein was assayed in a buffer containing 200 mM Tris pH 7.5, 0.01% Triton X-100, and 0.02% BSA into a 384-well assay plate. Compounds were incubated with 17β-HSD13 (final 50 nM) and NAD+ (final 10 mM) at room temperature for 1 h prior to substrate addition. The assay reaction was then initiated by addition of β-estradiol (final 20 μM), and the reaction mixture was incubated for 2 hours at room temperature. Product formation was detected with chemiluminescence by adding equal volume of NAD+/NADH Glo reagent (Promega, #G9062) and read on a PHERAstar microplate reader (BMG LABTECH). IC50 values were determined with GraphPad Prism®, where log-transformed concentration values and the inhibition data were fitted to a four-parameter logistic equation. Y=Bottom+(Top−Bottom)/(1+10^((Log IC50−X)*HillSlope)). The original, % control, or % inhibition data are represented by Y along with their minimal (Bottom) and maximal (Top) values. The inhibitor concentration is represented by X, IC50 is the concentration at 50% maximal value, and Hill Slope is the slope factor.

Sequence of HEK293 cells expressing 17β-HSD13 (Q7Z5P4 20-300): as above

Row | Compound | EC50 [1] [nM] | IC50 [2] [nM]
1 | O=C1N(C(c2ccc(F)cc2F)C(F)(F)F)C(=O)C2(CC2)N1Cc1nnc(-c2ccc(F)c(O)c2Cl)s1 (single isomer, unassigned) [Compound I-54A] | 5.63 ± 0.961 | 0.857 ± 0.153
2 | O=C1N([C@@H](c2ccccc2)C(F)(F)F)C(=O)C2(CC2)N1Cc1nnc(-c2ccc(F)c(O)c2F)s1 [Compound I-99A, 4-[[5-(2,4-difluoro-3-hydroxy-phenyl)-1,3,4-thiadiazol-2-yl]methyl]-6-[(1S)-2,2,2-trifluoro-1-phenyl-ethyl]-4,6-diazaspiro[2.4]heptane-5,7-dione] | 4.95 ± 0.0122 | 1.17 ± 0.185
3 | O=C1N([C@@H](c2ccccc2)C(F)(F)F)C(=O)C2(CC2)N1Cc1nnc(-c2ccc(F)c(O)c2Cl)s1 [Compound I-52, 4-[[5-(2-chloro-4-fluoro-3-hydroxy-phenyl)-1,3,4-thiadiazol-2-yl]methyl]-6-[(1S)-2,2,2-trifluoro-1-phenyl-ethyl]-4,6-diazaspiro[2.4]heptane-5,7-dione] | 6.41 ± 1.23 | 1.09 ± 0.23
4 | O=C1N(Cc2ccccc2)C(=O)C2(CC2)N1Cc1nnc(-c2ccc(F)c(O)c2Cl)s1 [Compound I-35, 6-benzyl-4-((5-(2-chloro-4-fluoro-3-hydroxyphenyl)-1,3,4-thiadiazol-2-yl)methyl)-4,6-diazaspiro[2.4]heptane-5,7-dione] | 40.9 | 5.33
5 | O=C1N(Cc2ccccc2)C(=O)C2(CC2)N1Cc1nnc(-c2cc(C(F)(F)F)cc(O)c2F)s1 [Compound I-55, 6-benzyl-4-((5-(2-fluoro-3-hydroxy-5-(trifluoromethyl)phenyl)-1,3,4-thiadiazol-2-yl)methyl)-4,6-diazaspiro[2.4]heptane-5,7-dione] | 29.2 | 2.14
6 | O=C1N(CC(F)(F)F)C(=O)C2(CC2)N1Cc1nnc(-c2cc(C(F)(F)F)cc(O)c2Cl)s1 [Compound I-40, 4-((5-(2-chloro-3-hydroxy-5-(trifluoromethyl)phenyl)-1,3,4-thiadiazol-2-yl)methyl)-6-(2,2,2-trifluoroethyl)-4,6-diazaspiro[2.4]heptane-5,7-dione] | 66.4 | 9.8
7 | O=C1N(CC(F)(F)F)C(=O)C2(CC2)N1Cc1nnc(-c2cc(F)c(F)c(O)c2F)s1 [Compound I-68, 4-((5-(2,4,5-trifluoro-3-hydroxyphenyl)-1,3,4-thiadiazol-2-yl)methyl)-6-(2,2,2-trifluoroethyl)-4,6-diazaspiro[2.4]heptane-5,7-dione] | 35 | –
8 | O=C1N(Cc2ccccc2)C(=O)C2(CC2)N1Cc1nnc(-c2cc(C(F)F)c(F)c(O)c2F)s1 [Compound I-65, 6-benzyl-4-((5-(5-(difluoromethyl)-2,4-difluoro-3-hydroxyphenyl)-1,3,4-thiadiazol-2-yl)methyl)-4,6-diazaspiro[2.4]heptane-5,7-dione] | 19.2 | –
9 | CCN1C(=O)N(Cc2nnc(-c3ccc(F)c(O)n3)s2)C2(CC2)C1=O [Compound I-75, 6-ethyl-4-((5-(5-fluoro-6-hydroxypyridin-2-yl)-1,3,4-thiadiazol-2-yl)methyl)-4,6-diazaspiro[2.4]heptane-5,7-dione] | – | 1360
10 | O=C1N(C2CC2)C(=O)C2(CC2)N1Cc1nnc(-c2ccc(F)c(O)c2F)s1 [Compound I-43, 6-cyclopropyl-4-((5-(2,4-difluoro-3-hydroxyphenyl)-1,3,4-thiadiazol-2-yl)methyl)-4,6-diazaspiro[2.4]heptane-5,7-dione] | – | 18.5
11 | O=C1N(CCc2ccccc2)C(=O)C2(CC2)N1Cc1nnc(-c2ccc(F)c(O)c2Cl)s1 [Compound I-37, 4-((5-(2-chloro-4-fluoro-3-hydroxyphenyl)-1,3,4-thiadiazol-2-yl)methyl)-6-phenethyl-4,6-diazaspiro[2.4]heptane-5,7-dione] | – | 32.7
12 | CC#CC(N1C(=O)N(Cc2nnc(-c3ccc(F)c(O)c3F)s2)C2(CC2)C1=O)C(F)(F)F (stereo not shown) [Compound I-94, 4-((5-(2,4-difluoro-3-hydroxyphenyl)-1,3,4-thiadiazol-2-yl)methyl)-6-(1,1,1-trifluoropent-3-yn-2-yl)-4,6-diazaspiro[2.4]heptane-5,7-dione] | – | 6.77
13 | (R)-4-((5-(2,4-difluoro-3- hydroxyphenyl)-1,3,4-thiadiazol-2- yl)methyl)-6-(1-hydroxypropan-2- yl)-4,6-diazaspiro[2.4]heptane-5,7- dione [Compound I-46] | – | 66
14 | CCN1C(=O)N(Cc2nnc(-c3cnc(Cl)c(O)c3)s2)C2(CC2)C1=O [Compound I-12, 4-((5-(6-chloro-5-hydroxypyridin-3-yl)-1,3,4-thiadiazol-2-yl)methyl)-6-ethyl-4,6-diazaspiro[2.4]heptane-5,7-dione] | – | 323
15 | O=C1N(Cc2ncccn2)C(=O)C2(CC2)N1Cc1nnc(-c2ccc(F)c(O)c2F)s1 [Compound I-21, 4-((5-(2,4-difluoro-3-hydroxyphenyl)-1,3,4-thiadiazol-2-yl)methyl)-6-(pyrimidin-2-ylmethyl)-4,6-diazaspiro[2.4]heptane-5,7-dione] | – | 620
16 | O=C1N(Cc2nnc(-c3ccc(F)c(O)c3Cl)s2)C2(CC2)C(=O)N1C1(c2ccccc2)CC1 [Compound I-103, 4-((5-(2-chloro-4-fluoro-3-hydroxyphenyl)-1,3,4-thiadiazol-2-yl)methyl)-6-(1-phenylcyclopropyl)-4,6-diazaspiro[2.4]heptane-5,7-dione] | – | 4.39
17 | O=C1N(Cc2ccccc2)C(=O)C2(CC2)N1Cc1nnc(-c2cc(F)c(F)c(O)c2F)s1 [Compound I-69, 6-benzyl-4-((5-(2,4,5-trifluoro-3-hydroxyphenyl)-1,3,4-thiadiazol-2-yl)methyl)-4,6-diazaspiro[2.4]heptane-5,7-dione] | 21.5 | –
18 | O=C1N(CC(F)(F)F)C(=O)C2(CC2)N1Cc1nnc(-c2cncc(O)c2Cl)s1 [Compound I-18, 4-((5-(4-chloro-5-hydroxypyridin-3-yl)-1,3,4-thiadiazol-2-yl)methyl)-6-(2,2,2-trifluoroethyl)-4,6-diazaspiro[2.4]heptane-5,7-dione] | – | 193
19 | CC(C)(C)N1C(=O)N(Cc2nnc(-c3ccc(F)c(O)c3F)s2)C2(CC2)C1=O [Compound I-84, 6-(tert-butyl)-4-((5-(2,4-difluoro-3-hydroxyphenyl)-1,3,4-thiadiazol-2-yl)methyl)-4,6-diazaspiro[2.4]heptane-5,7-dione] | – | 4.07
20 | CCN1C(=O)N(Cc2nnc(-c3cc(C(F)(F)F)cc(O)c3Cl)s2)C2(CC2)C1=O [Compound I-13, 4-((5-(2-chloro-3-hydroxy-5-(trifluoromethyl)phenyl)-1,3,4-thiadiazol-2-yl)methyl)-6-ethyl-4,6-diazaspiro[2.4]heptane-5,7-dione] | – | 13.8 ± 2.2
21 | CCN1C(=O)N(Cc2nnc(-c3ccc(F)c(O)c3F)s2)C(C)(C)C1=O [Compound I-8, 1-((5-(2,4-difluoro-3-hydroxyphenyl)-1,3,4-thiadiazol-2-yl)methyl)-3-ethyl-5,5-dimethylimidazolidine-2,4-dione] | – | 90.8
22 | C[C@H](c1ccccc1)N1C(=O)N(Cc2nnc(-c3ccc(F)c(O)n3)s2)C2(CC2)C1=O [Compound I-79, (R)-4-((5-(5-fluoro-6-hydroxypyridin-2-yl)-1,3,4-thiadiazol-2-yl)methyl)-6-(1-phenylethyl)-4,6-diazaspiro[2.4]heptane-5,7-dione] | – | 122
23 | CC[C@H](C)N1C(=O)N(Cc2nnc(-c3ccc(F)c(O)n3)s2)C2(CC2)C1=O [Compound I-78, (S)-6-(sec-butyl)-4-((5-(5-fluoro-6-hydroxypyridin-2-yl)-1,3,4-thiadiazol-2-yl)methyl)-4,6-diazaspiro[2.4]heptane-5,7-dione] | – | 934
24 | O=C1N(CC(F)(F)F)C(=O)C2(CC2)N1Cc1nnc(-c2ccc(F)c(O)n2)s1 [Compound I-73, 4-((5-(5-fluoro-6-hydroxypyridin-2-yl)-1,3,4-thiadiazol-2-yl)methyl)-6-(2,2,2-trifluoroethyl)-4,6-diazaspiro[2.4]heptane-5,7-dione] | – | 1390
25 | O=C1N(CC2(C(F)(F)F)CC2)C(=O)C2(CC2)N1Cc1nnc(-c2ccc(Cl)c(O)c2F)s1 [Compound I-25, 4-((5-(4-chloro-2-fluoro-3-hydroxyphenyl)-1,3,4-thiadiazol-2-yl)methyl)-6-((1-(trifluoromethyl)cyclopropyl)methyl)-4,6-diazaspiro[2.4]heptane-5,7-dione] | – | 146
